# Experiments:
# [1] = target: USP28 (Homo sapiens (Human), UniProt Q96RU2); assay: Ubiquitin-Rhodamine 110 Assay for USP28 Activity; type: biochemical
# In short: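 Single-point screen at 10 μM, 90 min; follow-up dose-response (25 μM top, 3-fold) with 75 pM USP28 (1-1077)-TEV-6*His, 30 min compound preincubation, Ub-Rh110 substrate for 20 min at room temperature, citric acid stop. Buffer pH 8.0 Tris; fluorescence 485/535 nm; IC50 by 4-parameter logistic fit of % inhibition.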
# [2] = target: USP25 (Homo sapiens (Human), UniProt Q9UHP3); assay: Ubiquitin-Rhodamine 110 Assay for USP25 Activity; type: biochemical
# In short: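 USP25-His6 (75 pM) preincubated 30 min with compound (25 μM to 1.3 nM, 10-point 3-fold), then Ub-Rh110 added; 45 min at room temperature in pH 8.0 Tris buffer with BME, BGG, Triton X-100, stopped with 10 mM citric acid. Fluorescence 485/535 nm; % inhibition vs no-enzyme and DMSO controls, IC50 by 4-parameter logistic fit.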
# USP25, sequence (Q9UHP3 whole entry): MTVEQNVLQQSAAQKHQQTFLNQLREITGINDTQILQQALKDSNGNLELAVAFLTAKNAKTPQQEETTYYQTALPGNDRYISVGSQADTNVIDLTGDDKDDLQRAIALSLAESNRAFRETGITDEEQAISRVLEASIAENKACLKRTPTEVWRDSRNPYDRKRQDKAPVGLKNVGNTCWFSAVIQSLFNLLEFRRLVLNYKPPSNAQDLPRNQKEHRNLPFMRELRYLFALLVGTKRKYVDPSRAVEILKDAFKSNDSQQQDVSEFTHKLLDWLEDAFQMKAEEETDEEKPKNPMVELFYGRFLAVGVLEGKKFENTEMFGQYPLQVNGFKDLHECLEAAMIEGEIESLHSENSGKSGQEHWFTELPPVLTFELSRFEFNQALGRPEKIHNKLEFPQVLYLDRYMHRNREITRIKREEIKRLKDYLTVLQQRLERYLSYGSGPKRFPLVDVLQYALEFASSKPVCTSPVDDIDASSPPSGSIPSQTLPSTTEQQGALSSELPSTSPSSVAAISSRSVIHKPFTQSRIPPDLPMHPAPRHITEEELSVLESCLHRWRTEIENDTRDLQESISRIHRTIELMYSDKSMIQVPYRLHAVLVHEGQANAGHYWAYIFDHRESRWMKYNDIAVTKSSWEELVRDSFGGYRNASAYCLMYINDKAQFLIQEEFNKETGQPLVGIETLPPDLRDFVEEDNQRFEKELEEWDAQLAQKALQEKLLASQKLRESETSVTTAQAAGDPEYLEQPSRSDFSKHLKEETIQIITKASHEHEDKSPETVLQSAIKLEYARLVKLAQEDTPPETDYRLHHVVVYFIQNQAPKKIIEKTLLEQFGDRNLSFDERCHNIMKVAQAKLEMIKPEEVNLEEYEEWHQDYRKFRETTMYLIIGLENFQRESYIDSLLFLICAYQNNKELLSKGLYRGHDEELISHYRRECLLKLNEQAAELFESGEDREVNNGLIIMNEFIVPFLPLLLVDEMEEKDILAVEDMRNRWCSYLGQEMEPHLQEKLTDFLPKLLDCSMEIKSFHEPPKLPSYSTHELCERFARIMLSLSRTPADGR
# USP28, sequence (Q96RU2 whole entry): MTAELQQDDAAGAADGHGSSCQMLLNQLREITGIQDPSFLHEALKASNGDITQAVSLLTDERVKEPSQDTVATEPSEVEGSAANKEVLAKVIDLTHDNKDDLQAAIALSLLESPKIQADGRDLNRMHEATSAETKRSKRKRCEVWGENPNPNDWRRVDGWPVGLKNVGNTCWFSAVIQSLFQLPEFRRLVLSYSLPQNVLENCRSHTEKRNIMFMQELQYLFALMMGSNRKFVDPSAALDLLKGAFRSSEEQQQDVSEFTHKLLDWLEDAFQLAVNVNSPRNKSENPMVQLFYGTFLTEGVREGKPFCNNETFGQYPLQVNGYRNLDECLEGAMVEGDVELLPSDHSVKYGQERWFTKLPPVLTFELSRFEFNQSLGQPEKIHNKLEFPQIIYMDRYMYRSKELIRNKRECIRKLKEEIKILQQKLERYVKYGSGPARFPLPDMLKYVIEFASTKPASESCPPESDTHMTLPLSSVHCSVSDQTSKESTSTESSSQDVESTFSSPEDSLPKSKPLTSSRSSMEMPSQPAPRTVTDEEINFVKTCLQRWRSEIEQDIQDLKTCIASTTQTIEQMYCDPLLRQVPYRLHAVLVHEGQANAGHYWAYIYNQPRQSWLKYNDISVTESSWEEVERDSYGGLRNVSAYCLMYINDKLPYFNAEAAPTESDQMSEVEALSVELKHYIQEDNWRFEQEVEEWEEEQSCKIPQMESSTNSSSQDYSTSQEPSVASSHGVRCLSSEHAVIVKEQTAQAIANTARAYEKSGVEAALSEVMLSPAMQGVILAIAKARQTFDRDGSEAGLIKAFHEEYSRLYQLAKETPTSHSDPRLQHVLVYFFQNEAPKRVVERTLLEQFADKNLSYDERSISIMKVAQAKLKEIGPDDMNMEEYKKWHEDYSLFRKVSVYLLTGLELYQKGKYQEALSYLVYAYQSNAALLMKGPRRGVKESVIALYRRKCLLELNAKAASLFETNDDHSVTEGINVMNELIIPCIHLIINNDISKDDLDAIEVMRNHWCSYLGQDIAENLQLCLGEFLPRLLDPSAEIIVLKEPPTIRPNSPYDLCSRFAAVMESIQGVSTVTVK
Structure (SMILES),IC50 [1],IC50 [2]
"Cc1ccc2c(N)c(C(=O)NCCc3ccc(C4CCNCC4)c(F)c3)sc2n1 [Example I-169, 3-Amino-N-(3-fluoro-4-(piperidin-4-yl)phenethyl)-6-methylthieno[2,3-b]pyridine-2-carboxamide]",< 0.2 µM,0.2 to 2 µM
"C[C@H](O)c1ccc2c(N)c(C(=O)NCCc3ccc(N4CCNCC4)cc3)sc2n1 (single isomer, unassigned) [Example I-221]",10 to 25 µM,10 to 25 µM
Cc1cc(Cl)nc2sc(C(=O)NCCc3ccc(N4CCNCC4)cc3)c(N)c12 [Compound I-56],0.2 to 2 µM,0.2 to 2 µM
"Cc1ccc2c(N)c(C(=O)NC[C@H](C)c3ccc(N4CC5CCC(C4)N5)cc3F)sc2n1 (single isomer, unassigned) [Example I-104]",0.2 to 2 µM,0.2 to 2 µM
Cc1ccc2c(N)c(C(=O)NC[C@@H](C)c3ccc(N4CCNCC4)cc3)sc2n1 [Example I-203],0.2 to 2 µM,2 to 10 µM
"Cc1ccc2c(N)c(C(=O)NCCc3ccc(N4CCNCC4)c(-c4cnn(C(F)F)c4)c3)sc2n1 [Example I-152, 3-Amino-N-(3-(1-(difluoromethyl)-1H-pyrazol-4-yl)-4-(piperazin-1-yl)phenethyl)-6-methylthieno[2,3-b]pyridine-2-carboxamide]",2 to 10 µM,10 to 25 µM
"Cc1ccc2c(N)c(C(=O)NCCc3ccc(N4CCC5(CCCNC5)C4)cc3)sc2n1 (single isomer, unassigned) [Example I-216]",0.2 to 2 µM,0.2 to 2 µM
CN1CCC(c2ccc(CCNC(=O)c3sc4nc(Cl)ccc4c3N)cc2)CC1 [Compound I-58],< 0.2 µM,0.2 to 2 µM
"Cc1ccc2c(N)c(C(=O)NCCc3cnc(N4CCNCC4)c(Cl)c3)sc2n1 [Example I-215, 3-Amino-N-(2-(5-chloro-6-(piperazin-1-yl)pyridin-3-yl)ethyl)-6-methylthieno[2,3-b]pyridine-2-carboxamide]",0.2 to 2 µM,2 to 10 µM
"Cc1nc2sc(C(=O)NC[C@H](C)c3cc(F)c(N4CC5CCC(C4)N5)cc3F)c(N)c2cc1F (single isomer, unassigned) [Example I-112]",0.2 to 2 µM,2 to 10 µM
Cc1ccc2c(N)c(C(=O)NCCc3cc(F)c(N4CC5CCC(C4)N5)cc3F)sc2n1 [Compound I-34],< 0.2 µM,0.2 to 2 µM
Cc1ccc2c(N)c(C(=O)NCCc3ccc(N4CC5CC(C4)N5)cc3)sc2n1 [Compound I-65],< 0.2 µM,< 0.2 µM
Cc1ccc2c(N)c(C(=O)NCCc3ccc(N4CCN[C@H](CO)C4)cc3)sc2n1 [Example I-86],0.2 to 2 µM,0.2 to 2 µM
CN[C@@H]1CCN(c2ccc(CCNC(=O)c3sc4nc(C)ccc4c3N)cc2Cl)C1 [Example I-85],0.2 to 2 µM,0.2 to 2 µM
Cc1ccc2c(N)c(C(=O)NCCc3ccc(-n4ncc5c4CNC5)cc3)sc2n1 [Compound I-38],0.2 to 2 µM,2 to 10 µM
"Cc1ccc2c(N)c(C(=O)NC[C@H](C)c3ccc(N4CC5CCC(C4)N5)c(F)c3)sc2n1 (single isomer, unassigned) [Example I-106]",0.2 to 2 µM,2 to 10 µM
Cc1ccc2c(N)c(C(=O)NCCc3ccc(C4CCNCC4)cc3)sc2n1 [Compound I-13],< 0.2 µM,0.2 to 2 µM
"Cc1ccc2c(N)c(C(=O)NC[C@@H](C)c3ccc(N4CC5CCC(C4)N5)cc3F)sc2n1 (single isomer, unassigned) [Example I-103]",0.2 to 2 µM,0.2 to 2 µM
"CN[C@@H]1CN(c2cc(F)c(CCNC(=O)c3sc4nc(C)ccc4c3N)cc2F)C[C@H]1F (single isomer, unassigned) [Example I-213]",0.2 to 2 µM,0.2 to 2 µM
Cc1ccc2c(N)c(C(=O)NCCc3cc(F)c(N4C[C@H]5C[C@@H]4CN5)cc3F)sc2n1 [Compound I-53],< 0.2 µM,< 0.2 µM
Cc1ccc2c(N)c(C(=O)NCCc3ccc(N4CC5CCC(C4)N5)c(Cl)c3)sc2n1 [Compound I-20],0.2 to 2 µM,0.2 to 2 µM
Nc1c(C(=O)NCCc2ccc(N3CCNCC3)cc2)sc2ncc3c(c12)CCC3 [Compound I-28],2 to 10 µM,2 to 10 µM
"CN(C)c1ccc2c(N)c(C(=O)NCCc3ccc(N4CCNCC4)cc3)sc2n1 [Example I-186, 3-Amino-6-(dimethylamino)-N-(4-(piperazin-1-yl)phenethyl)thieno[2,3-b]pyridine-2-carboxamide]",2 to 10 µM,10 to 25 µM
Cc1cc(C(F)F)c2c(N)c(C(=O)NCCc3ccc(N4CCNCC4)cc3)sc2n1 [Compound I-14],< 0.2 µM,< 0.2 µM
Cc1ccc2c(N)c(C(=O)NCCc3ccc(N4CCNCC4)c4c3CCC4)sc2n1 [Compound I-18],< 0.2 µM,< 0.2 µM
COCc1cc(N2CCNCC2)ccc1CCNC(=O)c1sc2nc(C)ccc2c1N [Compound I-37],< 0.2 µM,0.2 to 2 µM

Structure (SMILES),IC50 [1],IC50 [2]
"Cc1ccc2c(N)c(C(=O)NCCc3cc(F)c(N4CCNCC4)cc3F)sc2n1 [Example I-11, 3-Amino-N-(2,5-difluoro-4-(piperazin-1-yl)phenethyl)-6-methylthieno[2,3-b]pyridine-2-carboxamide]",0.2 to 2 µM,0.2 to 2 µM
Cc1ccc2c(N)c(C(=O)NCCc3ccc(N4CC5CCC(C4)N5)cc3C#N)sc2n1 [Compound I-36],< 0.2 µM,0.2 to 2 µM
"Cc1ccc2c(N)c(C(=O)NCCc3ccc(O[C@@H]4COC5(CNC5)C4)cc3)sc2n1 (single isomer, unassigned) [Example I-218]",0.2 to 2 µM,0.2 to 2 µM
Cc1ccc2c(N)c(C(=O)NCCc3ccc(C4CCNCC4)cc3F)sc2n1 [Compound I-170],< 0.2 µM,0.2 to 2 µM
Cc1ccc2c(N)c(C(=O)NCCc3ccc(-n4ncc5c4CNC5)cc3F)sc2n1 [Compound I-41],< 0.2 µM,0.2 to 2 µM
Cc1ccc2c(N)c(C(=O)NCCc3ccc(N4CCNCC4)cc3F)sc2n1 [Compound I-5],0.2 to 2 µM,0.2 to 2 µM
"N#Cc1ccc2c(N)c(C(=O)NCCc3cc(F)c(N4CCNCC4)cc3F)sc2n1 [Example I-220, 3-Amino-6-cyano-N-(2,5-difluoro-4-(piperazin-1-yl)phenethyl)thieno[2,3-b]pyridine-2-carboxamide]",2 to 10 µM,2 to 10 µM
"Cc1ccc2c(N)c(C(=O)NCCc3ccc(C(=O)O)cc3)sc2n1 [Example I-173, 4-(2-(3-Amino-6-methylthieno[2,3-b]pyridine-2-carboxamido)ethyl)benzoic acid]",0.2 to 2 µM,0.2 to 2 µM
Cc1nc2sc(C(=O)NCCc3cc(F)c(N4CC5CCC(C4)N5)cc3F)c(N)c2cc1F [Compound I-72],< 0.2 µM,0.2 to 2 µM
CCc1ccc2c(N)c(C(=O)NCCc3ccc(N4CCNCC4)cc3)sc2n1 [Compound I-47],< 0.2 µM,< 0.2 µM
CCc1cc(CCNC(=O)c2sc3nc(C)ccc3c2N)ccc1N1CC2CCC(C1)N2 [Compound I-44],< 0.2 µM,< 0.2 µM
CN1CCN(c2ccc(CCNC(=O)c3sc4nc(Cl)ccc4c3N)cc2)CC1 [Compound I-59],0.2 to 2 µM,0.2 to 2 µM
Cc1ccc2c(N)c(C(=O)NCCc3ccc(N4CC5CCC(C4)N5)c(F)c3)sc2n1 [Example I-88],< 0.2 µM,0.2 to 2 µM
COc1cc(N2CCNCC2)ccc1CCNC(=O)c1sc2nc(C)ccc2c1N [Compound I-2],< 0.2 µM,< 0.2 µM
"Cc1nc2sc(C(=O)NC[C@H](C)c3ccc(N4CC5CCC(C4)N5)c(F)c3)c(N)c2cc1F (single isomer, unassigned) [Example I-108]",0.2 to 2 µM,0.2 to 2 µM
CCc1ccc2c(N)c(C(=O)NCCc3cc(F)c(N4CCNCC4)cc3F)sc2n1 [Compound I-48],< 0.2 µM,< 0.2 µM
CCOc1cc(CCNC(=O)c2sc3nc(C)ccc3c2N)ccc1N1CCNCC1 [Example I-83],0.2 to 2 µM,0.2 to 2 µM
Cc1ccc2c(N)c(C(=O)NCCc3ccc(N4CC5CCC(C4)N5)cc3F)sc2n1 [Compound I-22],< 0.2 µM,0.2 to 2 µM
"Cc1ccc2c(N)c(C(=O)NC[C@@H](C)c3ccc(N4CC5CCC(C4)N5)c(F)c3)sc2n1 (single isomer, unassigned) [Example I-105]",0.2 to 2 µM,0.2 to 2 µM
Cc1ccc2c(N)c(C(=O)NCCc3cc(F)c(N4C[C@@H]5C[C@H]4CN5)cc3F)sc2n1 [Compound I-52],< 0.2 µM,0.2 to 2 µM
CCNc1ccc2c(N)c(C(=O)NCCc3ccc(N4CCNCC4)cc3)sc2n1 [Example I-188],< 0.2 µM,0.2 to 2 µM
"Nc1nc2sc(C(=O)NCCc3ccc(N4CCNCC4)cc3)c(N)c2cc1F [Example I-115, 3,6-Diamino-5-fluoro-N-(4-(piperazin-1-yl)phenethyl)thieno[2,3-b]pyridine-2-carboxamide]",< 0.2 µM,0.2 to 2 µM
Cc1ccc2c(N)c(C(=O)NCCc3ccc(N4CCNCC4)cc3Cl)sc2n1 [Example I-76],< 0.2 µM,0.2 to 2 µM
Nc1c(C(=O)NCCc2ccc(N3CCNCC3)cc2)sc2nc(CO)ccc12 [Compound I-43],0.2 to 2 µM,2 to 10 µM
"Cc1ccc2c(N)c(C(=O)N[C@H]3C[C@H](c4ccc(N5CCNCC5)cc4)C3)sc2n1 [Example I-92, trans-3-amino-6-methyl-N-(3-(4-(piperazin-1-yl)phenyl)cyclobutyl)thieno[2,3-b]pyridine-2-carboxamide]",0.2 to 2 µM,0.2 to 2 µM
Cc1ccc2c(N)c(C(=O)NCCc3ccc(N4CC5CCC(C4)N5)c(C#N)c3)sc2n1 [Compound I-54],< 0.2 µM,0.2 to 2 µM

# Source: patent publication US10913753B2, “Thienopyridine carboxamides as ubiquitin-specific protease inhibitors” (FORMA Therapeutics, Inc., priority 2016, dated 2021)
